{
  "source": "patent US7314709B2",
  "about": "“Compositions and methods for detecting and quantifying COX-2 activity by lipoamino acid metabolism” (Vanderbilt University, priority 2002, dated 2008)",
  "assay_type_in_all_cases": "biochemical, murine",
  "key": {"mCOX-2 R120Q": {"target": "T1, mCOX-2 R120Q (Mus musculus, UniProt Q05769, R106Q)", "T1 construct": "made in house; host or cells: Sf-9 insect cells", "T1 sequence (Q05769 18-604 R106Q)": "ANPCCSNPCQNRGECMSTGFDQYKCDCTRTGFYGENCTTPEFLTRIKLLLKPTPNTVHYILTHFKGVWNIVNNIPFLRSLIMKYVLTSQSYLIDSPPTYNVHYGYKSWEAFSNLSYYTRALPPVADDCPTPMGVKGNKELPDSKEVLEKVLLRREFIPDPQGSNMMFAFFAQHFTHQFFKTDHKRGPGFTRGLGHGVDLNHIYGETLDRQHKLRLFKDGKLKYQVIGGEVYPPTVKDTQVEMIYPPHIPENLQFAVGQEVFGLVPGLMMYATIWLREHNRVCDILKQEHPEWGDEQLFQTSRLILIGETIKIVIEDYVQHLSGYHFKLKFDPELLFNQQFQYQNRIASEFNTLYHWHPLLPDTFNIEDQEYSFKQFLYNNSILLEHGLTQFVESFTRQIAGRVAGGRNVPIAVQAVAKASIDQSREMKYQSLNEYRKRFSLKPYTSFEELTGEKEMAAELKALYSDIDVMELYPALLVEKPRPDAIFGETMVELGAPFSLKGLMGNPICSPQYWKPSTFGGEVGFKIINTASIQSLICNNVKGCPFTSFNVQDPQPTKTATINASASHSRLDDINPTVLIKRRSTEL", "test": "Initial O2 uptake rate with constriction site mutant R120Q", "details": "200 nM enzyme; AA 100 μM, NAGly 200 μM", "method": "(§1) Enzymology: COX-1 was purified from ram seminal vesicles as previously described. Site-directed mutagenesis of COX-2 was performed as described previously. Recombinant COX-2 enzymes were expressed in Sf-9 insect cells and purified by ion-exchange chromatography and gel filtration as previously described. Apo-enzymes were reconstituted with hematin prior to activity assays.\n(§2) COX activity was quantified as previously described. Initial reaction velocity data were obtained from the linear portion of the oxygen uptake curves. Oxygraph data were analyzed by nonlinear regression with Enzyme Kinetics 1.5 software (Trinity Software, Campton, N.H.).\n(§3) At the bottom of the substrate (and inhibitor) binding site, there is a hydrogen bonding network comprised of residues Arg-120, Tyr-355, and Glu524, that form a constriction which is present in both COX isoforms. These residues contribute to the binding of the carboxylate in both AA and NSAIDs, and the glycerol moiety of 2-AG [12,23-27]."}, "mCOX-2 Y355F": {"target": "T2, mCOX-2 Y355F (Mus musculus, UniProt Q05769, Y341F)", "T2 construct": "made in house; host or cells: Sf-9 insect cells", "T2 sequence (Q05769 18-604 Y341F)": "T1 sequence (Q05769 18-604 R106Q) with Q89R, Y324F", "test": "Initial O2 uptake rate with constriction site mutant Y355F", "details": "200 nM enzyme; AA 100 μM", "method": "as §1, §2, §3"}, "mCOX-2 V523I": {"target": "T3, mCOX-2 V523I (Mus musculus, UniProt Q05769, V509I)", "T3 construct": "made in house; host or cells: Sf-9 insect cells", "T3 sequence (Q05769 18-604 V509I)": "T1 sequence (Q05769 18-604 R106Q) with Q89R, V492I", "test": "Initial O2 uptake rate with side pocket mutant V523I", "details": "200 nM enzyme; AA 100 μM", "method": "as §1, §2\n(§4) Previous studies have identified residues in the side pocket of COX-2, especially Arg-513, as critical determinants of 2-AG oxygenation by COX-2 [13]. […] (FIG. 5)."}, "[1]": {"target": "T4, mCOX-2 V4341/R513H/V5231 (VRV) (Mus musculus, UniProt Q05769, R499H/V420I/V509I)", "T4 construct": "made in house; host or cells: Sf-9 insect cells", "T4 sequence (Q05769 18-604 V420I/R499H/V509I)": "T1 sequence (Q05769 18-604 R106Q) with Q89R, V403I, R482H, V492I", "test": "Initial O2 uptake rate with side pocket triple mutant (VRV)", "details": "200 nM enzyme; AA 100 μM, NAGly 200 μM", "method": "as §1, §2, §4"}},
  "note": "Substitutions are numbered along the chain they refer to.",
  "data": [
    {"smiles": "CCCCC/C=C\\C/C=C\\C/C=C\\C/C=C\\CCCC(=O)O", "note": "[AA, arachidonic acid]", "values": [
      {"measurement": "reduction in initial rate of oxygenation compared with wild-type", "setting": "mCOX-2 R120Q", "value": "< 3", "unit": "fold"},
      {"measurement": "reduction in initial rate of oxygenation compared with wild-type", "setting": "mCOX-2 Y355F", "value": "< 3", "unit": "fold"},
      {"measurement": "effect of mutation on ability to metabolize AA", "setting": "mCOX-2 V523I", "value": "did not greatly affect"},
      {"measurement": "effect of mutation on oxygenation", "setting": "[1]", "value": "did not greatly affect"}
    ]}
  ]
}
